pIC50: −log10 of the molar value.
Test: Inhibition of Helicobacter pylori VirB11 HP0525 ATPase expressed in Escherichia coli assessed as reduction in inorganic phosphate release by colorimetric ATPase assay

Row | pIC50 | SMILES
1 | 4.11 | Cc1ccc(S(=O)(=O)Nc2nccn3c(-c4ccc5ccccc5c4)cnc23)cc1
2 | 5.22 | Cc1ccc(S(=O)(=O)Nc2ccc(Nc3nc(Br)cn4cc(-c5ccc6ccccc6c5)nc34)cc2)cc1
3 | 4.11 | Cc1ccc(S(=O)(=O)NCCNc2nc(Br)cn3cc(-c4ccc5ccccc5c4)nc23)cc1
